# Numbered stars: 1 amine (or outer) side, 2 acyl side, 3 side chain; on linkers, the order of the positions; unused ones are H or OH. Square brackets hold non-standard residues; d marks the D form. Peptide text beside a SMILES is read from it. X1 = CC(=O)N[C@H]1[C@H](OC[C@H]2O[C@H](O[C@H](C)[C@H](N[*:1])C(=O)[*:2])[C@H](NC(C)=O)[C@@H](O[C@@H]3O[C@H](CO)[C@H](O)[C@H](O[C@]4(C(=O)O)C[C@H](O)[C@@H](NC(C)=O)[C@H]([C@H](O)[C@H](O)CO)O4)[C@H]3O)[C@H]2O)O[C@H](CO)[C@@H](O[C@@H]2O[C@H](CO)[C@H](O)[C@H](O[C@]3(C(=O)O)C[C@H](O)[C@@H](NC(C)=O)[C@H]([C@H](O)[C@H](O)CO)O3)[C@H]2O)[C@@H]1O[C@@H]1O[C@@H](C)[C@@H](O)[C@@H](O)[C@@H]1O; sY = N[C@@H](Cc1ccc(OS(=O)(=O)O)cc1)C(=O)O; pGlu = O=C1CC[C@@H](C(=O)O)N1
# Experiments:
# [1] = molecular target: T1, P-LE (lectin/EGF domains of P-selectin) (Homo sapiens, UniProt P16109); assay: BIAcore: inhibition of P-LE binding to immobilized sPSGL and SGP-3 by co-injected solution-phase peptide; conditions: P-LE at 800 nM; solution-phase inhibitor at 20 μM
# T1 construct: The lectin-EGF (LE) domains (153 amino acids) of P-selectin (P-LE) and E-selectin (E-LE); IgG1 Fc (CH2-CH3 region) (C, cleaved yes); made in house; host or cells: CHO cells
# T1 sequence (P16109 42-198): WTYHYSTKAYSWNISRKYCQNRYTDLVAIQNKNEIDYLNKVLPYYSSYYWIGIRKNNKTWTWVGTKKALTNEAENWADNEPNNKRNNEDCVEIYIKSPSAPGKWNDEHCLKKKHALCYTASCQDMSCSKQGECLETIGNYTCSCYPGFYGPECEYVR
# Method: FIGS. 1B-1 and 1B-2: Representative BIAcore sensorgrams of solution-phase P-LE binding to immobilized PSGL-1 constructs. P-LE (at 800 nM concentration) was injected over sPSGL (FIGS. 1B-1) and SGP-3 (FIGS. 1B-2). […] P-LE binding to sPSGL and SGP-3 was inhibited by co-injection with solution-phase SGP-3 (dotted line) but not by a synthetic peptide containing no tyrosine sulfation or glycosylation (dashed line), both at 20 μM concentration. All curves reflect specific binding produced by subtracting non-specific binding from total binding.
# P-LE/19ek Peptide Binding Studies. Surface plasmon resonance was performed on BIAcore 2000 and 3000 instruments at 25° C. using streptavidin-coated sensor chips (BIAcore) and HBS-P buffer (BIAcore; 10 mM HEPES (pH 7.4), 150 mM NaCl, and 0.005% polysorbate 20 (v/v)) adjusted to 1 mM each CaCl2 and MgCl2. The 19ek peptides and sPSGL, a fucosyltransferase-VII modified version of the entire dimeric extracellular domain of PSGL-1 (Croce et al., 1998), were biotinylated at Lys residues with Sulfo-NHS-LC-Biotin (Pierce). Following biotinylation, sPSGL was reacted with immobilized P-selectin in order to isolate functional material (Sako et al., 1995). […] Glycosylated P-LE and E-LE, quantitated by experimentally determined extinction coefficients (280 nm), were injected over the19ek peptide, sPSGL and control surfaces at 40 μL/min. […]
# [2] = test system: E-selectin relative P-selectin; conditions: Poppe et al., 1997; cited from earlier work
# [3] = molecular target: T1, P-LE (lectin/EGF domains of P-selectin); assay: BIAcore surface plasmon resonance: solution-phase P-LE binding to immobilized sPSGL and PSGL-1 19ek peptides; conditions: immobilized ligand
# Source text: FIGS. 1C-1-1C-6: Binding affinity determinations of solution-phase P-LE reacted with immobilized sPSGL and purified 19ek peptides by BIAcore analysis. First row, left-to-right: sPSGL (FIGS. 1C-1), SGP-3 (FIGS. 1C-2) and SGP-2 (FIGS. 1C-3). Second row, left-to-right: SGP-1 (FIGS. 1C-4), GP-1 (FIGS. 1C-5) and SP-1 (FIGS. 1C-6). P-LE at the indicated concentrations was reacted with immobilized ligands (to determine the total binding signal) and against control […] containing no ligand (to determine non-specific binding). The equilibrium responses (Req) at each concentration of P-LE are shown. At each P-LE concentration tested, specific binding signals (squares) were determined by subtracting non-specific responses (triangles) from total binding signals (diamonds). KDs and standard deviations (shown) were determined by line-fitting of specific binding curves using BIAevaluation software (BIAcore) and are the products of three-to-ten separate experiments. KD determinations using line-fitting agreed well with values determined by linear regression analysis of Scatchard plots (not shown).
# P-LE/19ek Peptide Binding Studies. […] Glycosylated P-LE and E-LE, quantitated by experimentally determined extinction coefficients (280 nm), were injected over the19ek peptide, sPSGL and control surfaces at 40 μL/min. […]
compound,measurement,setting,value
CSCC[C@H](NC(=O)[C@H](CCSC)NC(=O)[C@@H]1CCCN1C(=O)[C@H](CCCNC(=N)N)NC(=O)[C@@H]1CCCN1C(=O)[C@@H]1CCCN1C(=O)[C@H](CCC(=O)O)NC(=O)[C@@H](NC(=O)[C@H](CCC(=O)O)NC(=O)[C@@H]1CCCN1C(=O)[C@H](CC(C)C)NC(=O)[C@H](Cc1ccccc1)NC(=O)[C@H](CC(=O)O)NC(=O)[C@H](Cc1ccc(OS(=O)(=O)O)cc1)NC(=O)[C@H](CC(=O)O)NC(=O)[C@H](CC(C)C)NC(=O)[C@H](Cc1ccc(OS(=O)(=O)O)cc1)NC(=O)[C@H](CCC(=O)O)NC(=O)[C@H](Cc1ccc(OS(=O)(=O)O)cc1)NC(=O)[C@H](CCC(=O)O)NC(=O)[C@@H](NC(=O)[C@H](C)NC(=O)[C@@H]1CCC(=O)N1)[C@@H](C)O)[C@@H](C)O[C@H]1O[C@H](CO[C@@H]2O[C@H](CO)[C@@H](O[C@@H]3O[C@H](CO)[C@H](O)[C@H](O[C@]4(C(=O)O)C[C@H](O)[C@@H](NC(C)=O)[C@H]([C@H](O)[C@H](O)CO)O4)[C@H]3O)[C@H](O[C@@H]3O[C@@H](C)[C@@H](O)[C@@H](O)[C@@H]3O)[C@H]2NC(C)=O)[C@H](O)[C@H](O[C@@H]2O[C@H](CO)[C@H](O)[C@H](O[C@]3(C(=O)O)C[C@H](O)[C@@H](NC(C)=O)[C@H]([C@H](O)[C@H](O)CO)O3)[C@H]2O)[C@H]1NC(C)=O)C(=O)N[C@@H](CC(=O)O)C(=O)N[C@@H](CC(=O)O)C(=O)N[C@@H](CC(=O)O)C(=O)N[C@@H](CC(=O)O)C(=O)N[C@@H](CCCCN)C(=O)O [SGP-3] ([pGlu]ATE[sY]E[sY]LD[sY]DFLPE[X1]EPPRPMMDDDDK-OH; C-terminus assumed),inhibition of P-LE binding to immobilized sPSGL and SGP-3 by co-injection,[1],inhibited
"sialyl Lewis^X (SLe^X, NeuNAc2,3Gal1,4[Fuc1,3] GlcNAc) tetrasaccharide",higher SLe^X binding affinity for E-selectin relative P-selectin,[2],approximately 10 fold
sPSGL: Fucosyltransferase-VII modified version of the entire dimeric extracellular domain of PSGL-1,"binding affinity of P-LE in words, compared with SGP-3 or the modified species",[3],essentially identical affinity
